Data: US11850263B2, “Nanoparticles conjugated with vasoactive intestinal peptide antagonists” (Emory University, priority 2017, dated 2023)
Entries after “also recorded” stand apart in the source; their conditions may differ. No end group written: not given here.

Tests used:
Bcl-2 = Bcl-2 blot of protein lysates from patient T cell expansion cultures; type: cell-based, human; conditions: lysates on days 7 and 14; actin loading control
Method: Protein lysates from patient T cell expansion cultures were prepared on days 7 and 14. Samples were run on an SDS-PAGE gel prior to transfer to a nitrocellulose membrane. The membrane was then probed for the pro-survival Bcl-2 protein, stripped, and then re-probed for actin as a loading control.

E.G7-OVA cells = assay: E.G7-OVA lymphoma model, adoptive transfer of T cells expanded with the compounds; type: in vivo, Mice; conditions: OVA-expressing lymphoma model; T cells expanded 3 days with CD3/CD28 beads and IL-2, injected intravenously on day 7 of tumor growth
Method: Mice were injected subcutaneously with 5×10^5 E.G7-OVA cells that were allowed to grow for 7 days until a palpable tumor formed. During this period, OT-I, OT-II, and B6 T cells were expanded with CD3/CD28 beads in the presence of IL-2 and the indicated compounds for 3 days. On day 7 of tumor growth, mice were injected intravenously with a combination of expanded OT-I, OT-II, and B6 T cells (2×10^6 OT-I, 1×10^6 OT-II, and 2×10^6 B6 cells) or 2×10^6 B6 T cells as a control. Mice were then monitored for tumor growth that was calculated as (L×W^2)/2. FIG. 5B is a tumor growth curve showing the rate of growth among groups over time. Expansion of mouse T cells in the presence of Idelalisib, VIPhyb, or a combination of both enhances their therapeutic efficacy in an OVA-expressing lymphoma model.

DLBCL patient T cells = assay: DLBCL patient T cell expansion for 14 days with CD3/CD28 beads and IL-2; type: cell-based, human
[1] = tested on: senescent T cells from a patient with lymphoma; assay: 10 day in vitro culture of senescent lymphoma patient T cells with anti-CD3/CD28 beads, flow cytometric analysis; type: cell-based, human; conditions: for fraction of senescent T cells that lacked both CD27 and CD28: control 55.2%; for numbers of effector memory T cells (Tem): 10-day cultures; for in vitro expansion of senescent T cells: as single agent or in combination
Method: Monocytes were depleted from the T cell sample, as monocytes are known to inhibit T cell expansion in cultures containing anti-CD3/CD28 beads. The effect of a range of idelalisib concentrations were compared alone and in combination with 3 uM VIP peptide antagonist (VIPhyb) or 1 ug/ml mast cell chymase, an enzyme that degrades endogenous VIP on T cell activation, differentiation and proliferation. Numbers of viable T cells were measured during a 10 day in vitro cultures as well as the T cell differentiation and activation profiles, focusing on the relative numbers of T cells with a senescent phenotype in which co-stimulatory receptors CD27 and CD28 are both absent (CD27−CD28−), to an activated phenotype, in which either CD27, CD28, or both co-stimulatory receptors are present (CD27+CD28+).
Aliquots of frozen patient apheresis products or PBMC from ficolled whole blood were rapidly thawed and rested overnight in complete RPMI 1640 supplemented with 10% fetal bovine serum, 100 U/mL penicillin, 100 μg/mL streptomycin, and 50 μM 2-mercaptoethanol (complete media). The following day, red blood cells were removed from apheresis products by ficoll gradient. The leukocytes were then enriched for T cells using an EasySep human T cell enrichment kit according to manufacturer's instructions. Cells were plated in 200 μL of complete media in each well of a 96 well flat-bottom plate. Compounds were added at the indicated concentrations, and the DMSO concentration was normalized to 0.1% for all wells. Anti-CD3/CD28 beads were added at a 1:1 bead:cell ratio. On day 7 post-stimulation, cells from each treatment were transferred to new media. Fresh compounds and beads were then added, and the cells were cultured for an additional 3 days. On day 10 post-initial stimulation, the beads were removed, and the cells were stained for flow cytometric analysis.
Cells were washed twice in PBS. The cells were also stained using a fixable viability dye. Surface markers were then stained by adding fluorochrome-conjugated antibodies to CD3, CD4, CD8, CD27, CD28, CD45RA, CD45RO, PD-1, and CCR7. To assess proliferation, half the cells were evaluated for expression of Ki67. Ki67 staining was performed using a FoxP3 intracellular staining kit. Just prior to running samples, Accucheck™ counting beads were added to each tube. Samples were acquired on a BD FACS Aria, and analysis was performed using FlowJo™ software. Viable cells were used in the analysis. The absolute numbers of cells was calculated for each population according to instructions provided by the manufacturer of the Accucheck™ counting beads.

[2] = cited from earlier work
[3] = tested on: luciferase B6 splenic T cells; assay: One-way mixed lymphocyte reaction (MLR), luciferase B6 splenic T cells with irradiated FVB splenocytes; type: cell-based, mouse; conditions: for T-cell proliferation in MLR: 3 days, daily addition of VIP and/or VIPhyb, 0-10 mmol/L [sic]
Method: Proliferation of luciferase B6 splenic T cells cultured for 3 days in MLR with irradiated FVB splenocytes, with daily addition of VIP and/or VIPhyb to achieve the concentrations shown (0-10 mmol/L).
To explore the role of VIP signaling in allo-immune responses, one-way mixed lymphocyte reactions (MLR) were performed containing VIP and/or the antagonistic VIPhyb peptide. Addition of VIP decreased Luciferase T-cell proliferation in a dose-dependent manner, while adding VIPhyb increased T-cell proliferation.

[4] = tested on: effector/memory CD8+ T cells and mature NK cells; conditions: mouse leukemia models; cited from earlier work
[5] = tested on: luciferase-expressing splenic T cells from B6 Luciferase mice; assay: Bioluminescent MLR, B6 Luciferase splenic T cells with irradiated FVB splenic T cells (VIP, VIPhyb, VIPhyb-NP); type: cell-based, mouse; conditions: for effect on inhibitory effects of VIP on T cell proliferation in vitro: added on 3 consecutive days
Text: Splenocytes were extracted from WT and VIP-KO mice treated with B16-F0 and B16-F10 melanoma, and analyzed with flow cytometry for Granzyme B (GrZ B) and CD8 expression. VIPhyb was conjugated to a biocompatible, non-toxic 30 nm NP through emulsion polymerization and tested for purity and stability. A mixed lymphocyte reaction (MLR) using luciferase-expressing splenic T cells from B6 Luciferase mice were co-cultured with irradiated splenic T cells from FVB mice. VIP, VIPhyb, and VIPhyb-NP at concentrations of 0 ug/mL to 975 ug/mL were added to the MLR on 3 consecutive days and their effect on T cell proliferation assessed with bioluminescent imaging.

PD-1 and PD-L1 = conditions: activated T cells and dendritic cells, respectively; cited from earlier work
[6] = tested on: T-cells from the anergic lymphoma patient; assay: Culture of sorted lymphoma patient T-cells with anti-CD3/anti-CD28 beads (Ki67, PD-1 by flow cytometry); type: cell-based, human
Text: Using high-speed cell sorting subsets of T-cells were isolated defined by their levels of CD27 and CD28 expression from the patient with relapsed lymphoma and a healthy control. CD3 positive T-cells with each of the four phenotypes defined by CD27 and CD28 expression were sorted and cultured in vitro in the presence of anti-CD^3/anti-CD28 beads. Total T-cells from healthy donors had 100% expression of the Ki67 proliferation marker following four days of culture. However, the corresponding total T-cell population from the patient with anergic T-cells following treatment for lymphoma had only 90% of T-cells expressing the Ki67 marker.
Following the daily addition of 3 uM VIPhyb to these cultures, the proportion of Ki67 positive T-cells from the anergic lymphoma patient was increased to 100%. […] In contrast, the T-cell subsets lacking expression of either CD27 or CD28 or both markers had impaired proliferated response when incubated with the anti-CD3/CD28 beads.
Addition of the antagonist VIPhyb augmented T-cell proliferation in the subsets lacking either CD27 or CD28.

[7] = tested on: luciferase positive splenic T cells (B6 Luc); assay: One-way allogeneic MLR, B6 Luc T cells with irradiated B6 Albino stimulator cells, IVIS average radiance; type: cell-based, mouse
Method: Bioluminescent image of a 96-well MLR plate.
A one-way allogeneic mixed lymphocyte reaction (MLR) between luciferase positive splenic T cells (B6 Luc) and 20 Gy irradiated stimulator cells from B6 Albino mice were co-cultured at 37° C. in a 96-well black plate. VIPhyb-NP in concentrations 0-2.5 uM was added to each well, followed by VIP in concentrations of 0-10 uM, 30 minutes later. This treatment was administered daily for 3 days, and an IVIS spectrum was used to quantify photon intensity, which correlates to cell number, on day 3. An increase in average radiance indicates an increase in T cell proliferation.

[8] = inclusion during T cell activation

## CC[C@H](Nc1ncnc2[nH]cnc12)c1nc2cccc(F)c2c(=O)n1-c1ccccc1 [idelalisib, (S)-2-(1-(9H-purin-6-ylamino)propyl)-5-fluoro-3-phenylquinazolin-4(3H)-one]
Bcl-2
  expression of Bcl-2 in lymphoma patient T cells: increased
E.G7-OVA cells
  therapeutic efficacy of mouse T cells expanded in presence of the compounds: enhances
DLBCL patient T cells
  frequency of CD27+CD28+ cells: increases
  frequency of CD27−CD28− cells: decreasing
DLBCL patient T cells; [8]
  number of viable T cells obtained: increases
  proportion of naïve and central memory cells: increases
[1]; 10 nM idelalisib
  fraction of senescent T cells that lacked both CD27 and CD28: 16.1%
[1]
  numbers of effector memory T cells (Tem): increased
  in vitro expansion of senescent T cells: significantly expanded
[1]; idelalisib 1 uM or 100 nM, compared to control cultures
  proportion of T cells co-expressing CD27 and CD28: significantly increased

## HSDAVFTDNYTRLRKQMAVKKYLNSILN [VIP]
[2]
  half-life in vivo: less than two
[3]
  T-cell proliferation in MLR: decreased

## KPRRPYTDNYTRLRKQMAVKKYLNSILN [VIPhyb, peptide antagonist of VIP]
[4]
  number of effector/memory CD8+ T cells and mature NK cells: increases
Bcl-2
  expression of Bcl-2 in lymphoma patient T cells: increased
[5]; T cell proliferation in MLR
  concentration of peak efficacy: 300 µg/mL
[5]; 0 ug/mL to 975 ug/mL
  effect on inhibitory effects of VIP on T cell proliferation in vitro: counteracted the inhibitory effects of VIP
E.G7-OVA cells
  therapeutic efficacy of mouse T cells expanded in presence of the compounds: enhances
[3]
  T-cell proliferation in MLR: increased; also recorded: augmented
[3]; VIP plus VIPhyb in MLR
  effect on VIP suppression of T-cell proliferation: reversed the suppressive effect of VIP; also recorded: mitigated the inhibitory effect
DLBCL patient T cells
  frequency of CD27+CD28+ cells: increases
  frequency of CD27−CD28− cells: decreasing
[1]; 3 uM VIPhyb
  fraction of senescent T cells that lacked both CD27 and CD28: 35.7%
[1]
  numbers of effector memory T cells (Tem): increased
  in vitro expansion of senescent T cells: significantly expanded
PD-1 and PD-L1
  expression of PD-1 and PD-L1: down regulates
[6]; 3 uM VIPhyb, flow cytometry, compared with control cultures without VIP antagonist
  levels of PD-1 expression: decreased
[6]; addition of VIPhyb, anti-CD3/CD28 beads
  T-cell proliferation in the subsets lacking either CD27 or CD28: augmented
[6]; daily addition of 3 uM VIPhyb, total T-cells of anergic lymphoma patient, anti-CD3/anti-CD28 beads, four days of culture, 90% without VIPhyb
  proportion of Ki67 positive T-cells: 100%

## VIPhyb-NP: VIPhyb with C-terminal linker (SEQ ID NO: 13) conjugated to a 30 nm poloxamer-stabilized polypropylene sulfide nanoparticle (KPRRPYTDNYTRLRKQMAVKKYLNSILNGGGGSC; also: conjugated to polypropylene sulfide nanoparticle)
[7]; VIPhyb-NP 0-2.5 uM daily for 3 days, read on day 3
  average radiance (T cell proliferation): significant dose-dependent increase
[7]; VIPhyb-NP 0-2.5 uM, then VIP 0-10 uM 30 minutes later
  effect on immunosuppressive effects of VIP: able to counteract the immunosuppressive effects of VIP
[5]; 0 ug/mL to 975 ug/mL
  dose dependence of effect on T cell proliferation: dose-dependent
  effect on inhibitory effects of VIP on T cell proliferation in vitro: counteracted the inhibitory effects of VIP

B1: IL 12: IL 12 added to T-cell cultures (protein, UniProt P29459 23-219; P29460 23-328, looked up)
Interleukin-12 subunit alpha: RNLPVATPDPGMFPCLHHSQNLLRAVSNMLQKARQTLEFYPCTSEEIDHEDITKDKTSTVEACLPLELTKNESCLNSRETSFITNGSCLASRKTSFMMALCLSSIYEDLKMYQVEFKTMNAKLLMDPKRQIFLDQNMLAVIDELMQALNFNSETVPQKSSLEEPDFYKTKIKLCILLHAFRIRAVTIDRVMSYLNAS
Interleukin-12 subunit beta: IWELKKDVYVVELDWYPDAPGEMVVLTCDTPEEDGITWTLDQSSEVLGSGKTLTIQVKEFGDAGQYTCHKGGEVLSHSLLLLHKKEDGIWSTDILKDQKEPKNKTFLRCEAKNYSGRFTCWWLTTISTDLTFSVKSSRGSSDPQGVTCGAATLSAERVRGDNKEYEYSVECQEDSACPAAEESLPIEVMVDAVHKLKYENYTSSFFIRDIIKPDPPKNLQLKPLKNSRQVEVSWEYPDTWSTPHSYFSLTFCVQVQGKSKREKKDRVFTDKTSATVICRKNASISVRAQDRYYSSSWSEWASVPCS
[6]; addition of IL 12 to the cultures
  proliferation fraction of T-cells, CD28 negative and CD27 negative subsets: significant impact in increasing the proliferation fraction of T-cells that were CD28 negative but not those that were CD27 negative

B2: mast cell chymase: human mast cell chymase (CMA1), an enzyme that degrades endogenous VIP (protein, UniProt P23946 22-247, looked up)
Chymase: IIGGTECKPHSRPYMAYLEIVTSNGPSKFCGGFLIRRNFVLTAAHCAGRSITVTLGAHNITEEEDTWQKLEVIKQFRHPKYNTSTLHHDIMLLKLKEKASLTLAVGTLPFPSQFNFVPPGRMCRVAGWGRTGVLKPGSDTLQEVKLRLMDPQACSHFRDFDHNLQLCVGNPRKTKSAFKGDSGGPLLCAGVAQGIVSYGRSDAKPPAVFTRISHYRPWINQILQAN
[1]; 1 μg per ml mast cell chymase
  fraction of senescent T cells that lacked both CD27 and CD28: 37.4%
[1]
  in vitro expansion of senescent T cells: significantly expanded
